Results published in patent US8052987B2, “Method of administering bisphosphonates” (Novartis Pharmaceuticals Corporation, priority 2000, dated 2011).

Columns and labels:
[1] = tested on: patients with postmenopausal osteoporosis; assay: 12 month dose-ranging trial of iv zoledronic acid: percent change from baseline in bone mineral density (DEXA) versus placebo; format: in vivo, human; settings: for Difference versus placebo for percent change from baseline in bone mineral density of the lumbar spine; postero anterior (L1-L4): at 12 months, ITT population
Excerpt: “A Multinational, Randomized, Double-Blind, Placebo-Controlled, Parallel-Group, Dose-Ranging, Safety and Efficacy Trial With Intravenous Bolus Injections of Zoledronate In the Treatment of Postmenopausal Osteoporosis”
(§1) This was a dose and dose regimen-finding 12 month trial of iv zoledronic acid in patients with postmenopausal osteoporosis. Three hundred and fifty one patients were randomized to six study arms. Patients who had recent exposure to bone active drugs, e.g. bisphosphonates, estrogen, calcitonin, raloxifene, or a history of metabolic bone diseases were excluded. All patients were evaluated at baseline and in 3-monthly visits. Zoledronic acid or placebo was administered as a bolus iv injection into a peripheral vein over 5 minutes at every visit.
Efficacy was ascertained by measurement of percent change from baseline in bone mineral density (BMD) measured by dual energy X-ray absorptiometry (DEXA) as compared to placebo, at 6, 9, and 12 months.
(§2) • Placebo • 0.25 mg zoledronic acid every 3 months • 0.5 mg zoledronic acid every 3 months • 1.0 mg zoledronic acid every 3 months • 2.0 mg zoledronic acid every 6 months • 4.0 mg zoledronic acid every 12 months

[2] = tested on: patients with postmenopausal osteoporosis; assay: Suppression of biochemical markers of bone turnover in the same trial; format: in vivo, human; settings: throughout the 6 and 12 month dosing intervals
Procedure: as §1
Additionally, the degree and duration of suppression of biochemical markers of bone turnover—parathyroid hormone (PTH), bone specific alkaline phosphatase (BSAP), serum C-telopeptide (CTX), serum osteocalcin, urine N-telopeptide (NTX)/creatinine ratio, urine deoxypyridinoline (d-pyd)/creatinine ratio, urine pyridinoline (pyd)/creatinine ratio—was obtained every 3 months and measured in a central laboratory.
as §2

**Q.** Which results are given for `O=P(O)(O)C(O)(Cn1ccnc1)P(=O)(O)O` [zoledronate, 2-(imidazol-1yl)-1-hydroxyethane-1,1-diphosphonic acid]?
**A.** Difference versus placebo for percent change from baseline in bone mineral density of the lumbar spine; postero anterior (L1-L4) ([1]; 1 × 4.0 mg (4.0 mg iv every 12 months)): 4.6%; Difference versus placebo for percent change from baseline in bone mineral density of the lumbar spine; postero anterior (L1-L4) ([1]; 2 × 2.0 mg (2.0 mg iv every 6 months)): 4.2%; Difference versus placebo for percent change from baseline in bone mineral density of the lumbar spine; postero anterior (L1-L4) ([1]; 4 × 0.25 mg (0.25 mg iv every 3 months)): 5.1%; Difference versus placebo for percent change from baseline in bone mineral density of the lumbar spine; postero anterior (L1-L4) ([1]; 4 × 0.5 mg (0.5 mg iv every 3 months)): 4.9%; Difference versus placebo for percent change from baseline in bone mineral density of the lumbar spine; postero anterior (L1-L4) ([1]; 4 × 1.0 mg (1.0 mg iv every 3 months)): 4.5%; percent change from baseline in BMD compared with placebo ([1]; all treatment arms, 12 month results): significantly (p<0.001) greater than placebo; Bone mineral density compared to placebo ([1]; at the spine, hip, distal radius, and total body): increased compared to placebo; bone mass increase (BMD data) ([1]; dose administration as infrequent as every 6 or 12 months): statistically significant and medically relevant bone mass increase; Suppression of biochemical markers of bone formation and bone resorption [2]: suppression of bone turnover to the pre-menopausal level
